The text below walks through data of patent publication US7628765B2, “Increasing retrievable cells from a breast duct” (Cytyc Corporation, priority 2001, dated 2009).

For the test, the system named is breast ducts of live rabbits. The test can be described thus: Ductal fluid collection after intraductal injection of mannitol solution in live rabbit. To be noted: for recovery: out-flow liquid checked about an hour later. Format: in vivo, New Zealand rabbit. On the procedure:
The objective of these experiments was to test the effects of the introduction of a solution containing mannitol on the secretion of fluid from the breast ducts of live rabbits. New Zealand rabbit #3242, female, from Kraelik Farm in CA weighing 4.1 kg was used. The rabbit was anesthetized by injection of 200 mg of ketamine and 40 mg of Zylazine. A second injection of 100 mg of ketamine and 20 mg of xylazine was made 2 hours later to maintain the rabbit in a deep plane of anesthesia. The thorax and abdomen of the rabbit was shaved to expose the breasts and nipples.
A single lumen blue color catheter (O.D. 0.23″ ID 0.017; O.D. at the tip 0.011″-0.012″) was inserted into a duct in each nipple. Three nipples were tested, and 2 ducts per nipple were accessed with a catheter. The nipples were identified A, B, and C.
A duct on nipple A was injected with 0.20 ml of a 12.5% solution of D-Mannitol in H2O (available from Sigma Chemicals, St. Louis, Mo. cat# M-9546 lot 6710402: C6H14O6 FW 182.2) with a single catheter. The control duct on nipple A was injected with 0.20 ml of phosphate buffered saline (PBS). A microfuge tube was attached to the end of each catheter to collect out flow liquid. Ten minutes later 0.2 ml of a 12.5% solution of D-Mannitol in H2O was injected into the first duct and the second duct was injected with 0.20 ml of phosphate buffered saline, for a total volume injected in each duct of 0.40 ml.
A duct on nipple B was injected with 0.5 ml of a 12.5% solution of D-Mannitol in H2O with a single catheter. The control duct on nipple B was injected with 0.50 ml of phosphate buffered saline (PBS). A microfuge tube was attached to the end of each catheter to collect out-flow liquid.
A duct on nipple C was injected with 0.7 ml of a 12.5% solution of D-Mannitol in H2O with a single catheter. The control duct on nipple C was injected with 0.70 ml of phosphate buffered saline (PBS). A microfuge tube was attached to the end of each catheter to collect out flow liquid.
About an hour after the fluid containing mannitol or PBS was injected into the ducts via the catheters, the microfuge tubes were checked for whether any fluid was returned.

Each structure is given as a SMILES string.

Take `OC[C@@H](O)[C@@H](O)[C@H](O)[C@H](O)CO` [mannitol, D-Mannitol]: where the note is “ducts injected with 12.5% mannitol solution, 0.4-0.7 ml, PBS control 1 out of 3”, the “ducts from which fluid can be collected” value is recorded as “three out of three”. In addition, the recovery by setting is: (nipple A, duct A1, 0.4 ml total of 12.5% solution (2 x 0.2 ml, 10 min apart) injected intraductally) 310 ul liquid; (nipple B, duct B1, 0.5 ml of 12.5% solution injected intraductally) 490 ul liquid; (nipple C, duct C1, 0.7 ml of 12.5% solution injected intraductally) 280 ul liquid.
